IC50 data for five molecules are collected here from US7923464B2, “Benzimidazole derivatives and their use for modulating the GABAA receptor complex” (Neurosearch A/S, priority 2005, dated 2011).

For this test, the target named is benzodiazepine modulatory unit (GABAA receptor complex), labelled with 3H-flunitrazepam. Nature of the test: In vitro inhibition of 3H-flunitrazepam (3H-FNM) binding. The settings on record: cerebral cortex membranes from male Wistar rats; 3H-FNM 1 nM; 40 min at 2° C. Further details: species or system rat. The method, then: In Vitro Inhibition of ^3H-flunitrazepam (^3H-FNM) Binding
The GABA recognition site and the benzodiazepine modulatory unit can selectively be labelled with ^3H-flunitrazepam.
Preparations are performed at 0-4° C. unless otherwise indicated. Cerebral cortex from male Wistar rats (150-200 g) is homogenised for 5-10 sec in 20 ml Tris-HCl (30 mM, pH 7.4) using an Ultra-Turrax homogeniser. The suspension is centrifuged at 27,000×g for 15 min and the pellet is washed three times with buffer (centrifuged at 27,000×g for 10 min). The washed pellet is homogenized in 20 ml of buffer and incubated on a water bath (37° C.) for 30 min to remove endogenous GABA and then centrifuged for 10 min at 27,000×g. The pellet is then homogenized in buffer and centrifuged for 10 min at 27,000×g. The final pellet is resuspended in 30 ml buffer and the preparation is frozen and stored at −20° C.
The membrane preparation is thawed and centrifuged at 2° C. for 10 min at 27,000×g. The pellet is washed twice with 20 ml 50 mM Tris-citrate, pH 7.1 using an Ultra-Turrax homogeniser and centrifuged for 10 min at 27,000×g. The final pellet is resuspended in 50 mM Tris-citrate, pH 7.1 (500 ml buffer per g of original tissue), and then used for binding assays. Aliquots of 0.5 ml tissue are added to 25 μl of test solution and 25 μl of ^3H-FNM (1 nM, final concentration), mixed and incubated for 40 min at 2° C. Non-specific binding is determined using Clonazepam (1 μM, final concentration). After incubation the samples are added 5 ml of ice-cold buffer and poured directly onto Whatman GF/C glass fibre filters under suction and immediately washed with 5 ml ice-cold buffer. The amount of radioactivity on the filters is determined by conventional liquid scintillation counting. Specific binding is total binding minus non-specific binding.
Co is specific binding in control assays, and
Cx is the specific binding in the test assay.
(The calculations assume normal mass-action kinetics).
A word on the IC50: it is the point on the concentration scale where inhibition reaches its midpoint. Read a high IC50 as a need for much substance. Molecule `CC(N)c1ccc2c(c1)ncn2-c1cccc(-c2ccccc2)c1` (centres unmarked) [Compound 3a, 1-(1-Biphenyl-3-yl-1H-benzoimidazol-5-yl)-ethylamine] returned an IC50 of 73 nM.

For the molecule `COc1ccccc1-c1cccc(-n2cnc3cc([C@@H](C)NC(C)=O)ccc32)c1` [Compound 12b, N-{(R)-1-[1-(2′-Methoxy-biphenyl-3-yl)-1H-benzoimidazol-5-yl]-ethyl}-acetamide], the IC50 amounted to 60 nM.

In the case of `COc1ccccc1-c1cccc(-n2cnc3cc([C@H](C)NC(C)=O)ccc32)c1` [Compound 12g, N-{(S)-1-[1-(2′-Methoxy-biphenyl-3-yl)-1H-benzoimidazol-5-yl]-ethyl}-acetamide], the 50% inhibitory concentration (IC50) worked out at 2.6 nM. This IC50 is about 23-fold lower than that of the molecule before.

Consider `COc1ccccc1-c1cccc(-n2cnc3cc([C@@H](C)N)ccc32)c1` [Compound 12o, (R)-1-[1-(2′-Methoxy-biphenyl-3-yl)-1H-benzoimidazol-5-yl]-ethylamine], for which the IC50 is 6.7 nM.

In the case of `C[C@@H](N)c1ccc2c(c1)ncn2-c1cccc(-c2ccccc2C#N)c1` [Compound 12r, 3′-[5-((R)-1-Amino-ethyl)-benzoimidazol-1-yl]-biphenyl-2-carbonitrile], the 50% inhibitory concentration (IC50) was found to be 3.7 nM.
